Results on eight compounds are retold here after BindingDB's records for doi:10.7270/Q2PR7TDC (Burnham Center For Chemical Genomics, 2010).

pIC50: −log10 of the molar value. Where only a bound is given, the exact number is not on record here.

The nature of this assay: TNFa-triggered NF-kB activation inhibitors, SAR follow-up, cell-based, revised (AID 2337).
Compound `CCOC1=CC=CC(C=NNC(=S)Nc2ccccc2[N+](=O)[O-])C1=O` (stereo not drawn) [MLS-0270696.0001] gave a negative-log IC50 (pIC50) of 6.38.
Consider `Cc1cc(Br)ccc1SCC(=O)OCC(=O)C(C#N)c1nc2ccccc2[nH]1` (stereo not drawn) [2-[(4-bromo-2-methylphenyl)thio]acetic acid [3-cyano-3-(1,3-dihydrobenzimidazol-2-ylidene)-2-oxopropyl] ester], for which the negative-log IC50 (pIC50) was less than 4.70.
The compound `N#CC(C(=O)COC(=O)CSc1ccc2ccccc2c1)c1nc2ccccc2[nH]1` (stereo not drawn) [[3-cyano-3-(1,3-dihydrobenzimidazol-2-ylidene)-2-oxopropyl] 2-naphthalen-2-ylsulfanylacetate] showed a negative logarithm of the IC50 (pIC50) of less than 4.70.
Turning to `Cc1cc(SCC(=O)OCC(=O)C(C#N)c2nc3ccccc3[nH]2)c(C)cc1Br` (stereo not drawn), the pIC50 is less than 4.70.
Regarding `CCCOC1=CC(=O)C(C=NNC(=S)Nc2ccccc2[N+](=O)[O-])C=C1` (stereo not drawn) [1-(2-nitrophenyl)-3-[[(E)-(6-oxo-4-propoxy-1-cyclohexa-2,4-dienylidene)methyl]amino]thiourea], the pIC50 was 6.06.
`Cc1ccc(C)c(SCC(=O)OCC(=O)C(C#N)c2nc3ccccc3[nH]2)c1` (stereo not drawn) [MLS000392255]: the pIC50 was less than 4.70.
As to `Cc1ccc(O)c(/N=C/C2=CC(Cc3ccccc3)C=C([N+](=O)[O-])C2=O)c1` (stereo not drawn) [(6E)-6-[[(5-methyl-2-oxidanyl-phenyl)amino]methylidene]-2-nitro-4-(phenylmethyl)cyclohexa-2,4-dien-1-one], the pIC50 was less than 4.70.
`N#CC(C(=O)COC(=O)CSc1ccc(Cl)cc1)c1nc2ccccc2[nH]1` (stereo not drawn) [MLS-0208254.0001]: the negative logarithm of the IC50 (pIC50) was less than 4.70.

For orientation: pIC50 means the IC50 on a negative log10 scale, so that one unit is a factor of ten. Read a high pIC50 as a small IC50.
